One experiment relates to Mtb laboratory ID IZAK. As to conditions: Laboratory ID IZAK, cited from earlier work; for Susceptibility: CLSI breakpoints 2020; for Minimum inhibitory concentration: tested and interpreted according to CLSI breakpoints in 2020.
A further experiment concerns Mtb laboratory ID MATI. As to conditions: Laboratory ID MATI, cited from earlier work; for Susceptibility: CLSI breakpoints 2021; for Minimum inhibitory concentration: tested and interpreted according to CLSI breakpoints in 2021.
Experiment [1] relates to Mycobacterium smegmatis DSM 43465 (ATCC 607). The experiment in a line: Microplate Alamar Blue Assay (MABA), M. smegmatis. The experiment is classed as cell-based. As to conditions: Mycolicibacterium smegmatis; MABA, resazurin after 48 h; read-out: M. smegmatis MIC. (In general: The colour change of resazurin is a common sign of viable cells or microbes.)
In experiment [2] the test system is M. aurum DSM 43999 (ATCC 23366). In words: Microplate Alamar Blue Assay (MABA), M. aurum. Type of experiment: cell-based. As to conditions: Mycolicibacterium aurum; MABA, resazurin after 72 h; read-out: M. aurum MIC.
Experiment [3] concerns Mycobacterium tuberculosis H37Ra ITM-M006710 (ATCC 9431). In words: Microplate Alamar Blue Assay (MABA), Mtb H37Ra. Type of experiment: cell-based. As to conditions: Middlebrook 7H9 broth pH 6.6, resazurin after 120 h; for MIC: Mycobacterium tuberculosis, 120 h, pH 6.6, MABA, read-out: Mtb H37Ra MIC.
Experiment [4] concerns Mycobacterium tuberculosis H37Rv CNCTC My 331/88 (ATCC 27294). The experiment in a line: MABA microdilution, Mtb H37Rv. Type of experiment: cell-based. To be noted: Mycobacterium tuberculosis; read-out: Mtb H37Rv MIC.
The test system of experiment [5] is HepG2 human hepatocellular carcinoma cells. The experiment in a line: In vitro HepG2 cytotoxicity (CellTiter 96). As to conditions: Homo sapiens, HepG2, 24 h, read-out: HepG2 IC50, 24 h incubation; * limit = highest evaluated concentration (precipitation in medium); ** over the 1000 µM limit.

As a reminder, the MIC is the lowest concentration found to suppress growth. As usually defined, the IC50 is the point on the concentration scale where inhibition reaches its midpoint.

Each structure is given as a SMILES string. Values after ≈ are worked out from the molar mass of the structure shown.

With `NC(=O)c1cnccn1` [PZA, pyrazinamide], in the experiment on Mtb laboratory ID IZAK, the Susceptibility entry is reported as “resistant” and the Minimum inhibitory concentration is greater than 16 µg/mL. For the same compound, in the experiment on Mtb laboratory ID MATI, the Susceptibility result was “resistant” and the Minimum inhibitory concentration was greater than 128 µg/mL.

For the compound `NNC(=O)c1ccncc1` [INH, isoniazid], the MIC in experiment [1] stood at 15.6 µg/mL (≈ 114 µM); in experiment [2] it was 3.91 µg/mL (≈ 28.5 µM); in experiment [3] it was 0.25 µg/mL (≈ 1.82 µM); in experiment [4], 0.2 µg/mL (≈ 1.46 µM). The “Mtb H37Ra MIC” value in experiment [3] (MABA) is 0.25 to 0.5 µg/mL. In addition, the IC50 in experiment [5] was greater than 1000 µM. Besides, in the experiment on Mtb laboratory ID MATI, the Susceptibility entry was “resistant”.

On to `CO[C@H]1/C=C/O[C@@]2(C)Oc3c(C)c(O)c4c(O)c(c(/C=N/N5CCN(C)CC5)c(O)c4c3C2=O)NC(=O)/C(C)=C\C=C\[C@H](C)[C@H](O)[C@@H](C)[C@@H](O)[C@@H](C)[C@H](OC(C)=O)[C@@H]1C` [RIF, rifampicin], for which the MIC is 12.5 µg/mL (≈ 15.2 µM) in experiment [1], 0.39 µg/mL (≈ 0.474 µM) in experiment [2] and 0.003 µg/mL (≈ 0.00365 µM) in experiment [3]. For the same compound, the Susceptibility entry in the experiment with Mtb laboratory ID IZAK and in the experiment on Mtb laboratory ID MATI was “resistant” throughout. Moreover, the Minimum inhibitory concentration with Mtb laboratory ID IZAK and in the experiment with Mtb laboratory ID MATI was greater than 8 µg/mL in each case. The IC50 in experiment [5] was greater than 500 µM.

Turning to `[H]/N=C(/N)N[C@H]1[C@H](O)[C@@H](O)[C@H](O[C@@H]2O[C@@H](C)[C@](O)(C=O)[C@H]2O[C@@H]2O[C@@H](CO)[C@H](O)[C@@H](O)[C@@H]2NC)[C@@H](N/C(N)=N\[H])[C@@H]1O` [STM, streptomycin], in the experiment on Mtb laboratory ID IZAK, the Susceptibility result is given as “resistant” and the Minimum inhibitory concentration is 4 µg/mL (≈ 6.88 µM). In experiment [3], the minimal inhibitory concentration (MIC) turned out to be 0.5 µg/mL (≈ 0.86 µM). For the same compound, in the experiment with Mtb laboratory ID MATI, the Susceptibility entry is reported as “resistant” and the Minimum inhibitory concentration is greater than 16 µg/mL.

`CC[C@@H](CO)NCCN[C@@H](CC)CO` [EMB, ethambutol]: the Susceptibility result in the experiment with Mtb laboratory ID IZAK and with Mtb laboratory ID MATI was “sensitive” in each case. The Minimum inhibitory concentration in the experiment with Mtb laboratory ID IZAK and in the experiment with Mtb laboratory ID MATI was 0.5 µg/mL (≈ 2.45 µM) throughout. Also, the MIC in experiment [3] came out at 0.5 µg/mL (≈ 2.45 µM); in experiment [4], 0.39 µg/mL (≈ 1.91 µM).

Source of the values: paper PMC9687610, “Adenosine-Mimicking Derivatives of 3-Aminopyrazine-2-Carboxamide: Towards Inhibitors of Prolyl-tRNA Synthetase with Antimycobacterial Activity” (Biomolecules, 2022).
